Measured values reported in patent US20210106648A1, “SYNERGISTIC COMBINATION OF CHEMOTHERAPY AND PEPTIDE FOR TREATING CANCER” (TOBEBIO Novel Drug Laboratory Co., Ltd., priority 2019, published 2021).
Counter-ions that a name gives are not always drawn. Ends that are not written are not given here.

Experiments:
CT26 colon cancer cells = experiment: CT26 colon cancer liver metastasis model; assay type: in vivo, Balb/c mice; conditions: allostatine-1 5 mg/kg daily s.c.; CPT-11 100 mg/kg weekly i.p.
[1] = test system: AsPC-1 pancreatic cancer cells; assay type: in vivo, Balb/c nude mice; conditions: allostatine-1 2.5 mg/kg daily s.c.; paclitaxel 8 mg/kg weekly i.p.

Compound | median survival days (CT26 colon cancer cells) [days] | Median survival [1] [days]
CCc1c2c(nc3ccc(OC(=O)N4CCC(N5CCCCC5)CC4)cc13)-c1cc3c(c(=O)n1C2)COC(=O)[C@]3(O)CC [CPT-11, Irinotecan hydrochloride] | 35.5 | –
CC(=O)O[C@H]1C(=O)[C@@]2(C)[C@H]([C@H](OC(=O)c3ccccc3)[C@]3(O)C[C@H](OC(=O)[C@H](O)[C@@H](NC(=O)c4ccccc4)c4ccccc4)C(C)=C1C3(C)C)[C@]1(OC(C)=O)CO[C@@H]1C[C@@H]2O [Paclitaxel] | – | 108
HGVSGWGQHGTHG [Allostatine-1, linear 13-amino acid analog peptide of alloferon-1] | 30 | 97
